Series [1] concerns tracheas obtained from vitamin A-deficient hamsters. The settings on record: value taken from Newton et al.; read-out: ED50, hamster trachea organ culture assay; cited from earlier work.
The conditions of series [2]: Roberts and Frolik, Roberts et al.; cited from earlier work.
Series [3] has as its system mammary carcinogenesis. As to conditions: rats; Moon et al.; cited from earlier work.
Series [4] relates to pre-neoplastic and malignant epithelial lesions. As to conditions: literature; cited from earlier work.
The subject of series [5] is certain neoplastic cells. As to conditions: literature; cited from earlier work.
Series [6] relates to F9 Embryonal Carcinoma Cells. The series is described as follows: Induction of differentiation of F9 embryonal carcinoma cells (plasminogen activator release). Format: cell-based. As to conditions: Mus musculus, 96 h; molar concentration causing 50% induction of differentiation, by release of plasminogen activator; 4 days; read-out: Differentiation of F9 Embryonal Carcinoma Cells ED50. Here is the method: Induction of differentiation of cancer cells is a potential mode of cancer chemoprevention. […] Elevated release of plasminogen activator by F9 cells in the presence of retinoids is a marker for differentiation. Induction of differentiation of F9 cells by several of the retinoids of this invention was evaluated, and the results are summarized in Table I (Example 24) as values of ED50. All of the tested 4-oxoretionoic acid analogues induce differentiation at low concentrations (ED50 =[…] -10^-10 molar) and, therefore, are very effective inducers of differentiation of mouse F9 embryonal carcinoma cells. […] Under the conditions of this assay, ester derivatives might be hydrolyzed partially to the carboxylic acids.
Assay for Induction of Differentiation of Cancer Cells to Normal Cells
Evaluation of the differentiation potential of 4-oxoretinoids was carried out with an embryonal carcinoma cell line, F9. Elevation of plasminogen activator release by F9 cells in the presence of retinoids is a marker for inducing differentiation into parietal endoderm (Strickland and Mahdavi, loc. cit.; Strickland and Sawey, loc. cit.). F9 cells were grown at a density of 1×10^5 cells/mL in the presence or absence of […], 10^-8, 10^-9, 10^-10, and 10^-11 or molar retinoids for 4 days. Aliquots (20 μL) of the harvest fluid were mixed with 0.13 μM plasminogen, 0.3 mM H-D-Val-Leu-Lys-p-nitroaniline (a synthetic substrate of plasmin), 0.1% Tween 80, and 25 μg of fibrinogen fragments in a final volume of 0.2 mL of Tris-HCl, pH 7.5. After incubation for 4 hours at 25° C., the generation of p-nitroaniline was measured by absorbance at 405 nm. The average absorbencies from duplicate experiments were plotted (semilog plots) versus concentration (molarity). The ED50 values were determined by finding the midpoint between the maximal and minimal absorbance values.
Induction of Differentiation of Cancer Cells
^a ED50 is the molar concentration of the retinoid that causes
50% induction of differentiation of the carcinoma cells as measured by th
release of plasminogen activator.

The subject of series [7] is ornithine decarboxylase. Nature of the series: Ornithine decarboxylase assay (reduction of TPA-induced ODC activity in mouse skin). Format: in vivo. The text has this: A bioassay in vivo for activity in the prevention of carcinogen-induced cancer is based on the reduction by a retinoid of the amount of ornithine decarboxylase (ODC) induced in mouse skin by the tumor promoter 12-O-tetradecanoylphorbol 13-acetate (TPA). Verma et al. (Cancer Research, Vol. 38, pages 793-801, 1978), reported that "application of the potent tumor-promoting agent 12-O-tetradecanoylphorbol 13-acetate (TPA) to mouse skin leads to a rapid and transient induction of epidermal ornithine decarboxylase activity". They state, further, that "inhibition of this enzyme activity by retinoids may be a simple and rapid in vivo test for assessing the potential prophylactic activity of new synthetic retinoids". All of the tested 4-oxoretinoid analogues reduced TPA-induced ODC activity. The compounds of Examples 2-4, 8, 11, 17, 18, and 20-23 reduced ODC activity to 22-47% of the ODC activity in the control mice and are, therefore, very active in this assay for cancer chemopreventive activity.
Ornithine Decarboxylase Assay
Assays for the reduction by 4-oxoretinoids of ornithine decarboxylase activity induced by 12-O-tetradecanoylphorbol 13-acetate (TPA) were performed by the procedure of Verma et al., Cancer Research, Vol. 38, pages 793-801 (1978).

Series [8] has as its system skin papillomas. Nature of the series: Mouse antipapilloma assay (DMBA-TPA skin papillomas). Format: in vivo. Also on record: Average Number of Skin Papillomas/Mouse as % of No. of Papillomas/Mouse in the DMBA-TPA Control Group of Mice: concentration or dose not given beside the values. An excerpt:
Application of the carcinogen DMBA to mouse skin followed by application of the tumor promoter TPA causes the formation of papillomas. Certain retinoids applied to the same area of mouse skin reduce or prevent papilloma formation (e.g. H. Mayer, W. Bollag, R. Hanni, and R. Ruegg, Experientia, Vol 34, pages 1105-1119, 1978; R. K. Boutwell and A. K. Verma, Pure and Applied Chemistry, Vol. 51, pages 857-866, 1979). The antipapilloma assay is a direct test of the capability of a retinoid to prevent tumor formation in vivo. It has been used to select retinoids for clinical development. The tested retinoids reduced papilloma formation to 27-83% of papilloma formation in untreated control mice. […] The number of papillomas in mice treated with either of these six retinoids was 27-40% of the number of papillomas on untreated mice; or, differently expressed, papilloma formation was reduced by 60-73%.
In this assay, tumors are initiated in mice by applying the carcinogen DMBA to the skin of mice and subsequently applying the promoter TPA. The method is that of Verma et al., Cancer Research, Vol. 39, pages 419-425, 1979.

The subject of series [9] is tracheas obtained from vitamin A-deficient hamsters. Nature of the series: Hamster trachea organ culture assay (reversal of squamous metaplasia and keratinization). Format: cell-based. Here is the method:
Some of these 4-oxoretinoic acid analogues were evaluated in the hamster-trachea organ-culture assay described in Clamon et al., Nature, Vol. 250, pages 64-66, 1974; Sporn et al., Nature, Vol. 263, pages 110-113, 1976; and Newton et al., Cancer Res., Vol. 40, pages 3413-3425, 1980. This bioassay is specific for retinoids and assesses the capacity of retinoids to reverse keratinization in vitamin A-deficient hamster trachea in culture. Therefore, it is a measure of the capacity of a retinoid to control differentiation of epithelial cells, and "it is believed to have significant predictive value for the potential use of a new retinoid for prevention of epithelial cancer" (Newton et al., Cancer Res., Vol. 40, pages 3413-3425, 1980). (See Example 25). Also, data obtained by Newton et al., (Cancer Res., Vol. 40, pages 3413-3425, 1980) in assays of six all-trans or 13-cis retinamides are included in Table II for comparison.
Hamster Trachea Organ Culture Assay
4-Oxoretinoids were evaluated for their capacity to reverse squamous metaplasia and keratinization in organ cultures of tracheas obtained from vitamin A-deficient hamsters. The methods and procedures were those described by Sporn and co-workers (Clamon et al. and Newton et al., loc. cit.).

Read-outs that look alike come from different tables or passages of the source.

In the case of `CCNC(=O)/C=C(C)/C=C/C=C(C)/C=C/C1=C(C)CCCC1(C)C` [All-trans-N-ethylretinamide], the EC50 in [1] was 1 nM.
Regarding `CC1=C(/C=C/C(C)=C/C=C/C(C)=C\C(=O)NCCO)C(C)(C)CCC1` [13-Cis-N-(2-hydroxyethyl)-retinamide], the EC50 in series [1] was 0.3 nM.
In the case of `CC1=C(/C=C/C(C)=C/C=C/C(C)=C/C(=O)O)C(C)(C)CCC1=O` [all-trans-4-oxoretinoic acid], in series [2], the Metabolite identity entry is listed as “one of the metabolites of all-trans-retinoic acid”.
With `CC1=C(/C=C/C(C)=C/C=C/C(C)=C/C(=O)Nc2ccc(O)cc2)C(C)(C)CCC1` [All-trans-N-(4-hydroxyphenyl)-retinamide], the “Suppression of mammary carcinogenesis” value in series [3] is recorded as “suppress mammary carcinogenesis in rats”. For the same compound, the EC50 in series [1] is 0.3 nM.
For the compound `CC1=C(/C=C/C(C)=C/C=C/C(C)=C/C(=O)O)C(C)(C)CCC1` [all-trans-retinoic acid], the “Prophylactic effect on development of pre-neoplastic and malignant epithelial lesions” value in series [4] is reported as “exert a prophylactic effect”. Moreover, the “Induction of differentiation of certain neoplastic cells to terminally differentiated cells” value in series [5] is given as “highly active inducers of differentiation”.
As to `CC1=C(/C=C/C(C)=C/C=C/C(C)=C\C(=O)Nc2ccc(O)cc2)C(C)(C)CCC1` [13-Cis-N-(4-hydroxyphenyl)-retinamide], in series [3], the “Suppression of mammary carcinogenesis” value is on record as “suppress mammary carcinogenesis in rats”. For the same compound, the EC50 in series [1] was over 1 nM.
`CC1=C(/C=C/C(C)=C/C=C/C(C)=C\C(=O)O)C(C)(C)CCC1` [13-cis-retinoic acid]: the “Prophylactic effect on development of pre-neoplastic and malignant epithelial lesions” value in series [4] is recorded as “exert a prophylactic effect”. The “Induction of differentiation of certain neoplastic cells to terminally differentiated cells” value in series [5] was “highly active inducers of differentiation”.
As to `CC1=C(/C=C/C(C)=C/C=C/C(C)=C/C(=O)NCCO)C(C)(C)CCC1` [All-trans-N-(2-hydroxyethyl)-retinamide], the EC50 in [1] was 0.1 nM.
Regarding `CCNC(=O)\C=C(C)/C=C/C=C(C)/C=C/C1=C(C)CCCC1(C)C` [13-Cis-N-ethylretinamide], the EC50 in [1] was 0.3 nM.
In the case of `COC(=O)/C=C(C)/C=C/C=C(C)/C=C/C1=C(C)C(=O)C(C)(C)CC1(C)C` [Example 11, Methyl 3,3-Dimethyl-4-oxoretinoate], the EC50 turned out to be 0.9 nM in series [6] and 0.3 nM in series [9] (Mesocricetus auratus, reversal of keratinization, vitamin A-deficient hamster trachea in culture, read-out: ED50, hamster trachea organ culture assay). In addition, the “Ornithine Decarboxylase Activity, Average % of Control Group” value in series [7] (TPA-induced ODC, mouse skin, nanomoles of carbon dioxide per milligram of protein per half hour) is 22 % of Control Group. Further, the “ODC activity as % of the ODC activity in the control mice, summary range” value in series [7] (TPA-induced, summary of Table III in text) is listed as 22-47 % of the ODC activity in the control mice. Moreover, the “Average Number of Skin Papillomas/Mouse as % of No. of Papillomas/Mouse in the DMBA-TPA Control Group of Mice” value in series [8] (DMBA-initiated, TPA-promoted mouse skin) worked out at 27%. Moreover, the “Reduction of papilloma formation, summary range” value in series [8] (range over the six most active retinoids) is 60-73%. The “Papilloma formation as % of papilloma formation in untreated control mice, summary range” value in series [8] (summary of Table IV) is given as 27-40%. Besides, the “Activity in hamster-trachea assay compared with the retinamides of Table II” value in series [9] (compared with retinamides in lower part of Table II) is reported as “comparable”.
